Experimental data published in patent US9403866B2, “Compositions and methods for increasing telomerase activity” (Telomerase Activation Sciences, Inc., priority 2009, dated 2016).
pEC50: −log10 of the molar value. Where two headings read alike, the source gives them in different places.

Assays:
[1] = biological target: T1, telomerase (Homo sapiens, UniProt O14746); test: Keratinocyte cell/TRAP assay (HEKneo-P cells); type: cell-based; design: host or cells: HEKneo-P (pooled neonatal human epidermal keratinocytes); conditions: for Activity in in vitro HEK assay: 24 hr, 0.01 to 10 μM, vs vehicle control at peak of full dose curve; for pEC50: telomerase activation
Excerpt: Harley et al., U.S. Pat. […] Harley et al., U.S. Pat. […] Non-treatment control (NT) was also included. […]

[2] = biological target: T1, telomerase; test: In vitro model of fibrosis: TGFβ and bleomycin treated SAECs, gel TRAP assay; type: cell-based; conditions: bleomycin 10 ug/ml, TGFβ 10 ng/ml
Protocol: In addition a portion of the cells were treated with bleomycin (10 ug/ml) and TGFβ (10 ng/ml). Forty-eight hours after the second treatment, cells were washed and lysed with M-Per lysis buffer. A gel TRAP assay was run to evaluate the telomerase activity in the cells.

[3] = Plasma levels and bioavailability in mice; type: in vivo, male C57BL/6 mice; conditions: male, C57BL/6, mouse, read-out: Bioavailability % F
Protocol: The plasma levels of a compound following a single intravenous, oral, intra-peritoneal, or sub-cutaneous administration in male C57BL/6 mice was determined. Plasma samples were collected and used to determine the plasma concentration of the compound and metabolites. In addition tissue samples, including whisker samples, and peripheral blood mononuclear cells (PBMC) cells were collected for telomerase activity analysis.
(§1) C57BL16 mice were divided into treatment groups. The mice were provided ad libitum SLAC-MO1 #W080208 (Shanghai Laboratories Animal Center, Shanghai, China) throughout the in-life portion of the study with the exception of the overnight fasting period prior to oral dosing. Water was available ad libitum.
(§2) Body weights were taken on the day of dose administration. Dose volume was determined based on individual body weight taken on day of dosing.
Blood samples (approximately 300 μL) were collected via cardiac puncture or via retro-orbital puncture after anesthesia into tubes containing K2-EDTA anticoagulant and 1 mg/ml NaF at the various time points after dosing. Blood was stored on ice and then plasma separated via centrifugation (8000 rpm×6 minutes). The plasma was stored at […] until LC-MS/MS analysis.

[4] = Plasma levels and bioavailability in rats; conditions: male, Sprague Dawley, rat, in vivo, po, 10 mg/kg
Protocol: (§3) The plasma levels of a compound following a single intravenous and oral administration in carotid artery-cannulated male Sprague Dawley rats was determined. Plasma samples were collected and used to determine the plasma concentration of the compound and metabolites. In addition tissue samples, including whisker samples and PBMC cells were collected for telomerase activity analysis.
as §1, with “Carotid artery-cannulated male Sprague Dawley rats” for “C57BL16 mice”, “groups according to Table 6.” for “groups.”, “rats” for “mice”, “# YY080208” for “#W080208”
The compounds were dissolved in 2% EtOH/98% water to yield a final concentration of 2.5 mg/ml and 1 mg/ml for both intravenous and oral administration, respectively. The concentration of each compound was confirmed by HPLC analysis.
as §2
(§4) Blood samples (approximately 250 μL) were collected via cannulae into tubes containing K2-EDTA anticoagulant and 1 mg/ml NaF at the various time points. Blood was stored on ice and then plasma separated via centrifugation (8000 rpm×6 minutes). The plasma was stored at […] until LC-MS/MS analysis.
Percentage of bioavailability was calculated.

[5] = test system: Human brain pericytes; test: Tube formation of human brain pericytes on Matrigel; type: cell-based; conditions: 0.5 μM in water, 24 hr then 6 hr on Matrigel, p<0.15
Protocol: Human brain pericytes (donor) at PD 10 were cultured for a total of 30 hr in 0.5 μM compound 7 dissolved in water. Telomerase activity and tube formation were analyzed.
Brain pericytes were first cultured for 24 hr in a T-75 flask in 0.5 μM compound 7, and then split onto a 24 well plate coated with Matrigel in order to promote tube formation (done in triplicate). 0.5 μM compound 7 was again included in the medium. After 6 hr the samples were fixed and branch points were counted using a microscope, 5 fields/well, with 3 wells/condition. Compound 7 treated pericytes had 1.9 times more branch points than the control (p<0.15).

[6] = biological target: T1, telomerase; design: host or cells: peripheral blood mononuclear cells; conditions: reported by Franzese et al.; cited from earlier work
[7] = design: species or system male Beagle dogs; conditions: male, Beagle, dog, in vivo, po, 10 mg/kg
Protocol: as §3, with “level” for “levels”, “in” for “in carotid artery-cannulated”, “Beagle dogs” for “Sprague Dawley rats”
as §1, with “Male Beagle dogs” for “C57BL16 mice”, “groups according to Table 5.” for “groups.”, “dogs” for “mice”, “#W080701” for “#W080208”
The compounds were dissolved in 2% EtOH/98% water […] to yield a final concentration of 2.5 mg/ml and 1 mg/ml for both intravenous and oral administration, respectively. The concentration of each compound was confirmed by HPLC analysis.
Doses were administered intravenously via the left femoral vein and then by oral dosing one week later. Body weights were taken on the day of dose administration. Dose volume was determined based on individual body weight taken on day of dosing.
as §4, with “right femoral vein” for “cannulae”, “appropriate” for “the various”

T1 sequence (O14746 whole entry): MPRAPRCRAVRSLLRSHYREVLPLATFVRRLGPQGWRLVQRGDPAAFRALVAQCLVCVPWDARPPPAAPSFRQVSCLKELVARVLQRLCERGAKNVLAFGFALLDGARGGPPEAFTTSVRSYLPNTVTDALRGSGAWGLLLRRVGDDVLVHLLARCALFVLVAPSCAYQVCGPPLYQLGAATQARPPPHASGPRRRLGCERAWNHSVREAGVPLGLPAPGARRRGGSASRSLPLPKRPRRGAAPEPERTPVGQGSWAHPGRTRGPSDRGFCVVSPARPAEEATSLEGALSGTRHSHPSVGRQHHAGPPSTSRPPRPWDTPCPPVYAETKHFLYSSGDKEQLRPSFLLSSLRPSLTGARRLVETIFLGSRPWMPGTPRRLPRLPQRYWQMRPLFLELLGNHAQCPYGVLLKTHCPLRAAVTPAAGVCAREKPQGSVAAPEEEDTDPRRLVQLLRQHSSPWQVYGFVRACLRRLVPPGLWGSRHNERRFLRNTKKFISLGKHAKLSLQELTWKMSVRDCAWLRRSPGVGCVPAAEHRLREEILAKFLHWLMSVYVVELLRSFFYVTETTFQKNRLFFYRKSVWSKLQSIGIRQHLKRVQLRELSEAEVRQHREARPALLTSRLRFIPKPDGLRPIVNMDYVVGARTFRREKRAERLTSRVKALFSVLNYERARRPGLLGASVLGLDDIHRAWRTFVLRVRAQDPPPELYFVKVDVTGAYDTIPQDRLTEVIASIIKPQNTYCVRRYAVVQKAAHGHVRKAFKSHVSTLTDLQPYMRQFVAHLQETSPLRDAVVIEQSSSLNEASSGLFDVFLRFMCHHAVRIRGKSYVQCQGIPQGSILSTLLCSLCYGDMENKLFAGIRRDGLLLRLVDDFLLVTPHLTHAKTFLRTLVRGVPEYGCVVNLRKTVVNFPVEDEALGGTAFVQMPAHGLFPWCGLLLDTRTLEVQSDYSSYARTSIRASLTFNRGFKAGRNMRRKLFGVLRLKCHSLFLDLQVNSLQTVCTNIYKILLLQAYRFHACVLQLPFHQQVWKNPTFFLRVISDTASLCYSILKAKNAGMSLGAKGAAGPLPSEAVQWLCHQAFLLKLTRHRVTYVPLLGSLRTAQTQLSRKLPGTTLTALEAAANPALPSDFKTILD

| Compound | Max fold increase of activity [1] [fold] | Activity in in vitro HEK assay [1] | Bioavailability % F [4] [%] | pEC50 [1] | also measured |
| --- | --- | --- | --- | --- | --- |
| CC(C)[C@H](N)C(=O)OC1CC2(C)C3CC(O)C4C(C)(C)C(O)CCC45CC35CCC2(C)C1C1(C)CCC(C(C)(C)O)O1 (stereo partly drawn) [Compound 36, 2-(L)-Amino-3-methyl-butyric acid 3β,6α-dihydroxy-16β-hydroxy-17-[5-(1-hydroxy-1-methyl-ethyl)-2-methyl-tetrahydro-furan-2-yl]-4,4,13,14-tetramethyl-tetradecahydro-cyclopropa[9,10]cyclopenta[a]phenanthren-16β-yl ester] | 3.0 | + (telomerase activation is 2 fold or more in comparison with vehicle control at the peak of the full dose curve.) | – | – | concentration at Max fold increase of activity [1]: 0.01 to 0.12 µM |
| bleomycin | – | – | – | – | effect on SAEC telomerase activity [2]: suppressed SAEC telomerase activity |
| CC(C)C(N)C(=O)OC1CC2C3(C)CC(O)C(C4(C)CCC(C(C)(C)O)O4)C3(C)CCC23CC32CCC(O)C(C)(C)C12 (centres unmarked) [Compound 12] | – | – | 27 | 7.49 to 7.55 | bioavailability ([3]; IP, 5 mg/kg, 2% EtOH/98% water): 42%; bioavailability ([3]; PO, 5 mg/kg, 2% EtOH/98% water): 8% |
| CCC(C)[C@H](N)C(=O)OC1CC2C3(C)CC(O)C(C4(C)CCC(C(C)(C)O)O4)C3(C)CCC23CC32CCC(OC(=O)[C@@H](N)C(C)CC)C(C)(C)C12 (some centres unmarked) [Compound 32] | 3 | + (telomerase activation is 2 fold or more in comparison with vehicle control at the peak of the full dose curve.) | – | – | concentration at Max fold increase of activity [1]: 0.37 to 1.1 µM |
| CC(C)C(N)C(=O)OC1CC2C3(C)CC(O)C(C4(C)CCC(C(C)(C)O)O4)C3(C)CCC23CC32CCC(OC(=O)C(N)C(C)C)C(C)(C)C12 (stereo not drawn) [Compound 7, 2-(L)-Amino-3-methyl-butyric acid 6α-(2-amino-3-methyl-butyryloxy)-16β-dihydroxy-17-[5-(1-hydroxy-1-methyl-ethyl)-2-methyl-tetrahydro-furan-2-yl]-4,4,13,14-tetramethyl-tetradecahydro-cyclopropa[9,10]cyclopenta[a]phenanthren-3β-yl ester] | – | – | 44 | 7.30 to 7.39 | bioavailability ([3]; PO, 10 mg/kg, 2% EtOH/98% water): 25%; bioavailability ([3]; SC, 10 mg/kg, 2% EtOH/98% water): 61%; branch points relative to the control [5]: 1.9 times |
| CC(C)[C@H](N)C(=O)O[C@H]1CC2C3(CC[C@]4(C)[C@@H]([C@@]5(C)CC[C@@H](C(C)(C)O)O5)[C@@H](O)C[C@@]24C)C[C@@]32CCC(=O)C(C)(C)[C@H]12.Cl (stereo partly drawn) [Compound 30, 2-(L)-Amino-3-methyl butyric acid 16β-hydroxy-17-[5-(1-hydroxy-1-methyl-ethyl)-2-methyl-tetrahydro-furan-2-yl]-4,4,13,14-tetramethyl-3-oxo-tetradecahydro-cyclopropa[9,10]cyclopenta[a]phenanthren-6α-yl ester] | 3.5 | + (telomerase activation is 2 fold or more in comparison with vehicle control at the peak of the full dose curve.) | – | – | – |
| CC(C)(C)NC(=O)[C@@H]1C[C@@H]2CCCC[C@@H]2CN1C[C@@H](O)[C@H](Cc1ccccc1)NC(=O)[C@H](CC(N)=O)NC(=O)c1ccc2ccccc2n1 [Saquinavir] | – | – | – | – | telomerase activity in peripheral blood mononuclear cells [6]: increased telomerase activity |
| CCC(C)C(N)C(=O)OC1CCC23CC24CCC2(C)C(C5(C)CCC(C(C)(C)O)O5)C(O)CC2(C)C4CC(O)C3C1(C)C (centres unmarked) [Compound 14] | – | – | 93 | 7.68 to 8.05 | bioavailability ([3]; PO, 10 mg/kg, 5% PEG400/5% solutol HS-15/90% water): 42%; Bioavailability % F [7]: 55% |
